Test results: PMC8213057, “Targeting ALK2: An Open Science Approach to Developing Therapeutics for the Treatment of Diffuse Intrinsic Pontine Glioma” (Journal of Medicinal Chemistry, 2020)
Where “and” joins values, the source holds several entries; their conditions need not be identical. Equal values may be shown once.

Columns and labels:
MARK1 = MARK1 (Homo sapiens, UniProt Q9P0L2); assay: biochemical; conditions: read-out: % enzyme activity, 1 μM; Run 1, Run 2
PLK1 = PLK1 (Homo sapiens, UniProt P53350); assay: biochemical; conditions: read-out: % enzyme activity, 1 μM; Run 1, Run 2
RIPK4 = biological target: T1, RIPK4 (Homo sapiens, UniProt P57078); conditions: 1 μM; Run 1, Run 2
T1 sequence (P57078 1-832): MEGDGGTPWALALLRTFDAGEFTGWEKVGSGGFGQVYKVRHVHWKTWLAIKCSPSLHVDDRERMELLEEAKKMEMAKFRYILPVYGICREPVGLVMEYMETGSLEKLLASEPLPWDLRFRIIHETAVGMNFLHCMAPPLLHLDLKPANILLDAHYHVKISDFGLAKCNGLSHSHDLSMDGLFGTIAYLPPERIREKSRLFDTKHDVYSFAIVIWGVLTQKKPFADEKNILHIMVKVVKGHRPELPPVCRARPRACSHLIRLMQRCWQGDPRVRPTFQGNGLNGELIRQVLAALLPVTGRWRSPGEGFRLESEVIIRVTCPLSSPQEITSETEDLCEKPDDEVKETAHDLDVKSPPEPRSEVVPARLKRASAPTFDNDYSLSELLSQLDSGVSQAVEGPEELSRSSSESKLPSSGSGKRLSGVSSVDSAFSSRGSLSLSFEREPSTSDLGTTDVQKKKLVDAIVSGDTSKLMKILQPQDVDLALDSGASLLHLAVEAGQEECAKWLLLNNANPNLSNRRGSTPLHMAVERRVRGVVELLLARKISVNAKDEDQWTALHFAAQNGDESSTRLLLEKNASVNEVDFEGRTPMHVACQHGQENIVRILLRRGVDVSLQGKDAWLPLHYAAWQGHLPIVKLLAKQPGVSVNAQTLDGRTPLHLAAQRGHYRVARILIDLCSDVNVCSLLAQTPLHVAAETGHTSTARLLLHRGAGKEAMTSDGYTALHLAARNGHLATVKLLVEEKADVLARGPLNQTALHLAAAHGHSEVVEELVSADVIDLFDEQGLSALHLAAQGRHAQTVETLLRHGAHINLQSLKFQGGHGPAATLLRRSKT

NEK9 = biological target: T2, NEK9 (Homo sapiens, UniProt Q8TD19); assay: biochemical; conditions: read-out: % enzyme activity, 1 μM; Run 1, Run 2
T2 sequence (Q8TD19 1-979): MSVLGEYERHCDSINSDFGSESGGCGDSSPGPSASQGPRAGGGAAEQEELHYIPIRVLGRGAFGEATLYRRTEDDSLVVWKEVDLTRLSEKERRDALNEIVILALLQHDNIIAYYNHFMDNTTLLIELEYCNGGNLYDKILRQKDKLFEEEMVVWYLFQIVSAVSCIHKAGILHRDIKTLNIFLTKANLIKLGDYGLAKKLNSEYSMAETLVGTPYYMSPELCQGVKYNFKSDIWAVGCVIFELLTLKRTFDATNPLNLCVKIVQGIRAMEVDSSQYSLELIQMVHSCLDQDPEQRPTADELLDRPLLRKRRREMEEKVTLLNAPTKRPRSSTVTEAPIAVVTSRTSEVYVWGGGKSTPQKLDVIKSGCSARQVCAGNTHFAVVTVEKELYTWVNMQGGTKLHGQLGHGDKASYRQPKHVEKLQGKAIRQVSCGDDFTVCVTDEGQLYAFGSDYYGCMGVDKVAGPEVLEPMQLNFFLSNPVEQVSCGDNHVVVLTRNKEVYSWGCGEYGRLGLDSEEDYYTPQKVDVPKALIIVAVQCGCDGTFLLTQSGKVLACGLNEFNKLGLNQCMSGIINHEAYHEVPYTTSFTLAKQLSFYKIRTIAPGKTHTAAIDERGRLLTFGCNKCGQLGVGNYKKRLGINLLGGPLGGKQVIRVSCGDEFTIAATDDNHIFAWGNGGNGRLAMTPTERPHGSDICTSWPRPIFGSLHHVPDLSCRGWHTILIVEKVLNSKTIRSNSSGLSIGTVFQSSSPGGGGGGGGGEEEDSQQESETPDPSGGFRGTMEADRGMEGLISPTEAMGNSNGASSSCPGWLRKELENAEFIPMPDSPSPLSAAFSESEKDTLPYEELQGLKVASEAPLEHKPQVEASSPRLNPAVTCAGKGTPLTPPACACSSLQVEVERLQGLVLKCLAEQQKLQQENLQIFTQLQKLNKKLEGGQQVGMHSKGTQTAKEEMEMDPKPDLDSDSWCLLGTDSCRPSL

PKCd = PKCd (Homo sapiens, UniProt Q05655); conditions: 1 μM; Run 1, Run 2
FMS = biological target: T3, FMS (Homo sapiens, UniProt P07333); assay: 375-member kinase panel; assay type: biochemical; conditions: Run 1, Run 2; for % enzyme activity: 1 μM; for remaining activity at 1 µM: read-out: % enzyme activity, 1 μM
T3 construct: purchased Reaction Biology Corporation

STK32C/YANK3 = STK32C/YANK3 (Homo sapiens, UniProt Q86UX6); assay: biochemical; conditions: read-out: % enzyme activity, 1 μM; Run 1, Run 2
STK32C/YANK3, sequence (Q86UX6 whole entry): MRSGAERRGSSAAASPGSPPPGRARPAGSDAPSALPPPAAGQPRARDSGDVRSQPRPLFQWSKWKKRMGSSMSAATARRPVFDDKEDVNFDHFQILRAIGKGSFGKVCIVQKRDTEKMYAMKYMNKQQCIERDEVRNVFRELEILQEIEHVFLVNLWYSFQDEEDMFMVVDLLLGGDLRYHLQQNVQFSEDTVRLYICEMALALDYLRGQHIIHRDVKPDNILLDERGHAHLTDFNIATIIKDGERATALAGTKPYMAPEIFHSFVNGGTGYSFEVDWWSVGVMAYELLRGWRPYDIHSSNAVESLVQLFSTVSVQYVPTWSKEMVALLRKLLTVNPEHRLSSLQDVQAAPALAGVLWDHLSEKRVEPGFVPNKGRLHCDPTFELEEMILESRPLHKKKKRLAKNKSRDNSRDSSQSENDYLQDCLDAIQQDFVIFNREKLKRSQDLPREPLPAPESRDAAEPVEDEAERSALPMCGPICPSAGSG

T3 sequence (P07333 20-972): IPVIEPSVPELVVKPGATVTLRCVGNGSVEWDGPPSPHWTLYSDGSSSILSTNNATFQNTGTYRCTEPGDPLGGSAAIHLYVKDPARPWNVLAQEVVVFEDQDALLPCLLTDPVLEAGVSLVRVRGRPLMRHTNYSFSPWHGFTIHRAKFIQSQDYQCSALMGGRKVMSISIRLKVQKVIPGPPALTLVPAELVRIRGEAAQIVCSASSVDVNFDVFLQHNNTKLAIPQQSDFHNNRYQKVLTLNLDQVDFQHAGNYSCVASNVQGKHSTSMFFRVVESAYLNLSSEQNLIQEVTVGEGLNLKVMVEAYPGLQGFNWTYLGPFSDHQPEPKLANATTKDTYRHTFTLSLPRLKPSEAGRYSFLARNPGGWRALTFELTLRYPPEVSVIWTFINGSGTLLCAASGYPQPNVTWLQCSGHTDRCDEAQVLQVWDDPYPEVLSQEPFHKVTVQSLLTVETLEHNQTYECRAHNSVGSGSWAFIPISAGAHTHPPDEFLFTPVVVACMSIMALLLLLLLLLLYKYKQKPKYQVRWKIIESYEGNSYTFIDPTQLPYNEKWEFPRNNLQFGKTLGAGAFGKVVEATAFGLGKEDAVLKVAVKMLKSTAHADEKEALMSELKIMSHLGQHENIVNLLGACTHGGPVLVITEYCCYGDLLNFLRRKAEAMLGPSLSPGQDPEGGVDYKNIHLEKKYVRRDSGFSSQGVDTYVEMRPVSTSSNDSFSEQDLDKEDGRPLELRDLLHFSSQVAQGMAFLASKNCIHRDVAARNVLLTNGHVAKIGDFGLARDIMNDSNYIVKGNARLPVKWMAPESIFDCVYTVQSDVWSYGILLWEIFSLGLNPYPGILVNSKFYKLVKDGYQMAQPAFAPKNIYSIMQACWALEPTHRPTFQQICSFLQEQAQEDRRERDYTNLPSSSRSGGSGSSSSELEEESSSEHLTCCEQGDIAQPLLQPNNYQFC
PKCd, sequence (Q05655 whole entry): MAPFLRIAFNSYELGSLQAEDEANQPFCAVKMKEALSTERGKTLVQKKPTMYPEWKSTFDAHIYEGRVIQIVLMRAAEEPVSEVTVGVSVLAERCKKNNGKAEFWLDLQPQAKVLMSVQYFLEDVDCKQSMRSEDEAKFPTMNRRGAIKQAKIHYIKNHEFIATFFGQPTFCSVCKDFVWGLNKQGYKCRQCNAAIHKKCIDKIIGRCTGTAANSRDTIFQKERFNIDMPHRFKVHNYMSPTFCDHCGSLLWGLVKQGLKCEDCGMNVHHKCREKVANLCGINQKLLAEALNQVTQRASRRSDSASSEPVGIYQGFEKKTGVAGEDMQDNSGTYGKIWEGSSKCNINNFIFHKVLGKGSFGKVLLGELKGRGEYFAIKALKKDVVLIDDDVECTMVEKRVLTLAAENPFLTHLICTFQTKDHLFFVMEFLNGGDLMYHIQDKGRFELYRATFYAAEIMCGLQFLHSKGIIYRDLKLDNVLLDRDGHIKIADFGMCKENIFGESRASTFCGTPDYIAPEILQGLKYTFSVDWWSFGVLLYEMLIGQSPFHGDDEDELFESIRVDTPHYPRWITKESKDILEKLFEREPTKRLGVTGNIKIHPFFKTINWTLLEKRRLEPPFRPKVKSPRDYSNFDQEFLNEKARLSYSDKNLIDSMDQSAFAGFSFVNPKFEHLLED
MARK1, sequence (Q9P0L2 whole entry): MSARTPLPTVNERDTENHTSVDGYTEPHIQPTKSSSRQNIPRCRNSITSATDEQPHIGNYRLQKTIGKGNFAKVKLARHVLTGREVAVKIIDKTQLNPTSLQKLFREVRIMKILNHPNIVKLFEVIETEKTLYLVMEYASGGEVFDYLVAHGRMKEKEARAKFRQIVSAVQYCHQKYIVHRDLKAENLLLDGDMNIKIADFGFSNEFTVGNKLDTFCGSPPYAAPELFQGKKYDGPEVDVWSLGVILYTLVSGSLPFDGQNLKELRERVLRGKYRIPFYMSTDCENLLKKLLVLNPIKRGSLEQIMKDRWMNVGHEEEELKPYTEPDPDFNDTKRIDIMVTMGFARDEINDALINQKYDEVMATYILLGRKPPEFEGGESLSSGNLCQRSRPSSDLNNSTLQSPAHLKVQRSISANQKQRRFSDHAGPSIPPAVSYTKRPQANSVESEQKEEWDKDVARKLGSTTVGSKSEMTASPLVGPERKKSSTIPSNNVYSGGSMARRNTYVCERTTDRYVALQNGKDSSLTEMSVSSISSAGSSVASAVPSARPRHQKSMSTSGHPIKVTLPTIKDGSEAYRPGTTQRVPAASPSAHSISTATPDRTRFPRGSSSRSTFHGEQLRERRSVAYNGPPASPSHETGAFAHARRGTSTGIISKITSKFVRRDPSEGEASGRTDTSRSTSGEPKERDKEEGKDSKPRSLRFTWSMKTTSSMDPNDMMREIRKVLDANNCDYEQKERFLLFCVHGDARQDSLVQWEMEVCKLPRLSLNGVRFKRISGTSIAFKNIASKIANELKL
PLK1, sequence (P53350 whole entry): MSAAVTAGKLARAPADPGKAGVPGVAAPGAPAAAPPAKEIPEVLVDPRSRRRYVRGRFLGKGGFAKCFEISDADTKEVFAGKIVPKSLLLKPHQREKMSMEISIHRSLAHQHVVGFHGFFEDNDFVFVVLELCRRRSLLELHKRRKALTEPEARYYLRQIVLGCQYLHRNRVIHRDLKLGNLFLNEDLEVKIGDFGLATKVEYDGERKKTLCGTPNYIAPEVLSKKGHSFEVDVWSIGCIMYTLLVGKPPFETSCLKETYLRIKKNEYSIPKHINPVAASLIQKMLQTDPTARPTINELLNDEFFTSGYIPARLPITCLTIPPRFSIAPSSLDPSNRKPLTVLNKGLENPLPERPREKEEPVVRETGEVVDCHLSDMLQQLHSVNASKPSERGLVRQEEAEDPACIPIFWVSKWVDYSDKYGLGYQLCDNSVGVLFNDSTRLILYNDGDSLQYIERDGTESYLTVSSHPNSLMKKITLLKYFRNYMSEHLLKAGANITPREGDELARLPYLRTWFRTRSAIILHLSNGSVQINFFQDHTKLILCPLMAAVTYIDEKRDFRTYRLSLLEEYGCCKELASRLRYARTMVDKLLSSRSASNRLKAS

SMILES | % enzyme activity at 1 μM (ARAF) | remaining activity at 1 µM (MARK1) | remaining activity at 1 µM (PLK1) | % enzyme activity (RIPK4) | remaining activity at 1 µM (NEK9) | % enzyme activity (PKCd) | % enzyme activity (FMS) | remaining activity at 1 µM (FMS) | remaining activity at 1 µM (STK32C/YANK3)
COc1cc(-c2cncc(-c3ccc(N4CCN(C)CC4)cc3)c2C)cc(F)c1C(N)=O [Compound 26a, 2-Fluoro-6-methoxy-4-(4-methyl-5-(4-(4-methylpiperazin-1-yl)phenyl)pyridin-3-yl)benzamide] | 29.3% and 28.8% | 88% | 92.4% | 70.28% | 91.2% | 97.72% | 75.66% | 82.2% | 86.8%
COc1cc(-c2cncc(-c3ccc(N4C[C@@H](C)N(C)[C@@H](C)C4)cc3)c2C)cc(F)c1C(N)=O [Compound 26c, 2-Fluoro-6-methoxy-4-(4-methyl-5-(4-((3R,5S)-3,4,5-trimethylpiperazin-1-yl)phenyl)pyridin-3-yl)benzamide] | 48.1% and 43.3% | 94.1% | 92.7% | 82.04% | 91.6% | 100.12% | 78.83% | 79.5% | 93.3%
